Measurements taken from patent publication US20140329797A1, “SUBSTITUTED OXADIAZOLYL PYRIDINONES AND OXADIAZOLYL PYRIDAZINONES AS HIF INHIBITORS” (Bayer Intellectual Property GmbH, priority 2011, published 2014).

system: HCT 116 cells transfected with a luciferase reporter under the control of an HIF-responsive sequence; assay: HIF-luciferase assay; assay type: cell-based; conditions: Homo sapiens; HCT 116 HIF-luciferase reporter cells, hypoxia chamber (1% O2), 24 h; in some cases means of up to four individual determinations
Method: B-1. HIF-Luciferase Assay
HCT 116 cells were transfected in a stable manner with a plasmid which contained a luciferase reporter under the control of an HIF-responsive sequence. These cells were sown in microtitre plates [20000 cells/cavity in RPMI 1640 medium with 10% foetal calf serum (FCS) and 100 μg/ml of hygromycin]. Incubation was carried out overnight under standard conditions (5% CO2, 21% O2, 37° C., moistened). The following morning the cells were incubated with various concentrations of the test substances (0-10 μmol/l) in a hypoxia chamber (1% O2). After 24 h, Bright Glo reagent (Promega, Wisconsin, USA) was added in accordance with the manufacturer's instructions, and after 5 min the luminescence was measured. Cells which were incubated under normoxia served as background controls.

Row | SMILES | IC50
1 | CC(=O)OC1(c2cccc(Cn3nc(-c4nc(-c5ccc(OC(F)(F)F)cc5)no4)ccc3=O)c2)CC1 [Example 89, 1-(3-{[6-oxo-3-{3-[4-(trifluoromethoxy)phenyl]-1,2,4-oxadiazol-5-yl}pyridazin-1(6H)-yl]methyl}phenyl)cyclopropyl acetate] | 5 nM
2 | CC(C)(O)Cc1cccc(Cn2nc(-c3nc(-c4ccc(OC(F)(F)F)cc4)no3)ccc2=O)c1 [Example 90, 2-[3-(2-Hydroxy-2-methylpropyl)benzyl]-6-{3-[4-(trifluoromethoxy)phenyl]-1,2,4-oxadiazol-5-yl}pyridazin-3(2H)-one] | 6 nM
3 | CC(C)(O)Cc1cccc(Cn2nc(-c3nc(-c4ccc(C(C)(C)C(F)(F)F)cc4)no3)ccc2=O)c1 [Example 91, 2-[3-(2-Hydroxy-2-methylpropyl)benzyl]-6-{3-[4-(1,1,1-trifluoro-2-methylpropan-2-yl)phenyl]-1,2,4-oxadiazol-5-yl}pyridazin-3(2H)-one] | 40 nM
4 | O=c1ccc(-c2nc(-c3ccc(OC(F)(F)F)cc3)no2)nn1Cc1cccc(C2(CO)CC2)c1 [Example 92, 2-{3-[1-(Hydroxymethyl)cyclopropyl]benzyl}-6-{3-[4-(trifluoromethoxy)phenyl]-1,2,4-oxadiazol-5-yl}pyridazin-3(2H)-one] | 10 nM
5 | CC(C)(c1ccc(-c2noc(-c3ccc(=O)n(Cc4cccc(C5(CO)CC5)c4)n3)n2)cc1)C(F)(F)F [Example 93, 2-{3-[1-(Hydroxymethyl)cyclopropyl]benzyl}-6-{3-[4-(1,1,1-trifluoro-2-methylpropan-2-yl)phenyl]-1,2,4-oxadiazol-5-yl}pyridazin-3(2H)-one] | 25 nM
6 | N#CC1CCN(c2cc(Cn3nc(-c4nc(-c5ccc(OC(F)(F)F)cc5)no4)ccc3=O)ccn2)CC1 [Example 94, 1-(4-{[6-oxo-3-{3-[4-(trifluoromethoxy)phenyl]-1,2,4-oxadiazol-5-yl}pyridazin-1(6H)-yl]methyl}pyridin-2-yl)piperidine-4-carbonitrile] | 20 nM
7 | CC(C)(c1ccc(-c2noc(-c3ccc(=O)n(Cc4ccnc(N5CCC(C#N)CC5)c4)n3)n2)cc1)C(F)(F)F [Example 95, 1-(4-{[6-oxo-3-{3-[4-(1,1,1-trifluoro-2-methylpropan-2-yl)phenyl]-1,2,4-oxadiazol-5-yl}pyridazin-1(6H)-yl]methyl}pyridin-2-yl)piperidine-4-carbonitrile] | 40 nM
8 | O=c1ccc(-c2nc(-c3ccc(OC(F)(F)F)cc3)no2)nn1Cc1ccnc(N2CCN(C3CC3)CC2)c1 [Example 96, 2-{[2-(4-Cyclopropylpiperazin-1-yl)pyridin-4-yl]methyl}-6-{3-[4-(trifluoromethoxy)phenyl]-1,2,4-oxadiazol-5-yl}pyridazin-3(2H)-one] | 1.5 nM
9 | CC(C)(c1ccc(-c2noc(-c3ccc(=O)n(Cc4ccnc(N5CCN(C6CC6)CC5)c4)n3)n2)cc1)C(F)(F)F [Example 97, 2-{[2-(4-Cyclopropylpiperazin-1-yl)pyridin-4-yl]methyl}-6-{3-[4-(1,1,1-trifluoro-2-methylpropan-2-yl)phenyl]-1,2,4-oxadiazol-5-yl}pyridazin-3(2H)-one] | 3 nM
10 | CNc1ccc(Cn2nc(-c3nc(-c4ccc(OC(F)(F)F)cc4)no3)ccc2=O)cn1 [Example 100, 2-{[6-(Methylamino)pyridin-3-yl]methyl}-6-{3-[4-(trifluoromethoxy)phenyl]-1,2,4-oxadiazol-5-yl}pyridazin-3(2H)-one] | 6 nM
11 | CNc1ccc(Cn2nc(-c3nc(-c4ccc(C(C)(C)C(F)(F)F)cc4)no3)ccc2=O)cn1 [Example 101, 2-{[6-(Methylamino)pyridin-3-yl]methyl}-6-{3-[4-(1,1,1-trifluoro-2-methylpropan-2-yl)phenyl]-1,2,4-oxadiazol-5-yl}pyridazin-3(2H)-one] | 15 nM
